Values of other authors, collected in US20100249179A1, “Farnesoid X Receptor Agonists” (SMITHKLINE BEECHAM CORPORATION, priority 2007, published 2010).
Entries after “also recorded” stand apart in the source; their conditions may differ.

Columns and labels:
[1] = tested on: C57BL mice on high-fat diet; settings: cited from earlier work
male ob/ob mice = settings: GW4064 30 mg/kg intraperitoneally; cited from earlier work
diabetic db/db mice = settings: cited from earlier work
bile duct-ligated mouse = bile duct-ligated mouse model; cited from earlier work
[2] = tested on: mice on a lithogenic diet; settings: cited from earlier work
[3] = GW4064 100 mg/kg twice a day orally, high-fat diet mice, 100 mg/kg
[4] = GW4064 100 mg/kg twice a day orally, high-fat diet mice
[5] = oral GW4064 30 mg/kg bid, db/db mice

Q: For `CC(C)c1onc(-c2c(Cl)cccc2Cl)c1COc1ccc(/C=C/c2cccc(C(=O)O)c2)c(Cl)c1` [GW4064], which glucose tolerance ([1]; GW4064 100 mg/kg twice a day orally, high-fat diet mice, GTT, 100 mg/kg) is on record?
A: The glucose tolerance was “corrected glucose intolerance; also recorded: improve”.

Q: And the serum glucose [1, 3]?
A: The serum glucose was “decreased”.

Q: What about the serum insulin [1, 3] of the same molecule?
A: Its serum insulin is “decreased”.

Q: What about the serum triglyceride [1, 3] of the same molecule?
A: Its serum triglyceride is “decreased”.

Q: And the “high-fat diet induced body weight gain” value [1, 4]?
A: Its value is “reduced”.

Q: And the liver triglyceride content [1, 4]?
A: Its liver triglyceride content is “reduced”.

Q: And the body fat mass ([1]; mice on high-fat diet)?
A: Its body fat mass is “decrease”.

Q: And the body weight ([1]; mice on high-fat diet)?
A: The body weight was “decrease”.

Q: What about the total cholesterol ([1]; mice on high-fat diet) of the same molecule?
A: Its total cholesterol is “decrease”.

Q: What about the body weight (male ob/ob mice) of the same molecule?
A: Its body weight is “did not alter”.

Q: And the fasting blood glucose (male ob/ob mice)?
A: Its fasting blood glucose is “no effect”.

Q: And the food intake (male ob/ob mice)?
A: Its food intake is “did not alter”.

Q: And the glucose tolerance (male ob/ob mice)?
A: The glucose tolerance was “improved”.

Q: And the insulin concentration (male ob/ob mice)?
A: The insulin concentration was “decreased”.

Q: What about the insulin sensitivity (male ob/ob mice) of the same molecule?
A: The insulin sensitivity was “enhanced”.

Q: And the “glycogen storage in the liver” value (diabetic db/db mice; db/db mice)?
A: The value was “enhanced”.

Q: And the “insulin signalling in the liver” value (diabetic db/db mice; db/db mice)?
A: The value was “enhanced”.

Q: And the hyperglycemia (diabetic db/db mice; diabetic db/db mice)?
A: Its hyperglycemia is “significantly improved”.

Q: And the hyperlipidemia (diabetic db/db mice; diabetic db/db mice)?
A: Its hyperlipidemia is “significantly improved”.

Q: And the NEFA (diabetic db/db mice; [5])?
A: The NEFA was “decreased”.

Q: And the blood glucose (diabetic db/db mice; [5])?
A: Its blood glucose is “decreased”.

Q: And the “serum β-hydroxybutyrate” value (diabetic db/db mice; [5])?
A: Its value is “decreased”.

Q: And the total cholesterol (diabetic db/db mice; [5])?
A: The total cholesterol was “decreased”.

Q: And the triglyceride (diabetic db/db mice; [5])?
A: Its triglyceride is “decreased”.

Q: What about the bacterial overgrowth (bile duct-ligated mouse) of the same molecule?
A: Its bacterial overgrowth is “decreased”.

Q: What about the mucosal barrier (bile duct-ligated mouse) of the same molecule?
A: The mucosal barrier was “improved”.

Q: What about the “translocation of bacteria to mesenteric lymph nodes” value (bile duct-ligated mouse) of the same molecule?
A: The value was “decreased”.

Q: And the “formation of cholesterol crystals in the bile” value [2]?
A: The value was “prevented”.
